{
  "source": "patent US20200009118A1",
  "about": "“COMPOSITIONS AND METHODS FOR THE TREATMENTOF NEURODEGENERATIVE AND OTHER DISEASES” (Glialogix, Inc., priority 2017, published 2020)",
  "key": {"mouse model of seizures": {"test_system": "mouse model of seizures", "details": "approximately 260-320 mg/kg intraperitoneal; cited from earlier work"}, "activated astrocytes": {"test_system": "activated astrocytes", "assay": "Astrocyte activation (anti-GFAP area fraction) in spinal cord ventral horn of SOD1 mice", "assay_type": "in vivo, mouse", "excerpt": "The same test mice, spinal cord preparations and methods of analysis used in the neuroinflammatory study were identical to those used in the xCT quantitation study. Two neuroinflammatory cell populations were quantitated: (1) activated microglial cells using an antibody to the F4/80 antigen, and (2) activated astrocytes, using an antibody to the GFAP antigen. For each objective image, light parameters were optimized and kept consistent across all sections. Images that were captured at 20× were then imported into ImageJ freeware (NIH, Bethesda, Md.). A maximum entropy threshold algorithm was applied to all images in a completely blinded fashion to filter out all pixels that were not stained as DAB positive. 20× images were analyzed in a blinded fashion and mean area fraction occupied by stain was tabulated. Levels of neuroinflammation in the spinal cord were assessed by measuring the area fraction of the area of the ventral horn in the spinal cord occupied by activated astrocytes or microglia. […] The samples were then incubated with the primary antibody (Anti-GFAP) purchased from Abcam (Catalog # Ab10062; Cambridge, Mass.), diluted 1:1000 in PBS overnight at 4° C. Reaction products were developed using the Vector ImmPress system (Vector Labs, Burlingame, Calif.) using an anti-mouse IgG-conjugated horseradish peroxidase."}, "[1]": {"details": "2 g oral dose, people with ABCG2 genotype 421C/C; cited from earlier work"}},
  "data": [
    {"smiles": "O=C(O)c1cc(/N=N/c2ccc(S(=O)(=O)Nc3ccccn3)cc2)ccc1O", "note": "[Sulfasalazine, 2-hydroxy-5-[(E)-2-{4-[(pyridin-2-yl)sulfamoyl]phenyl}diazen-1-yl]benzoic acid]", "values": [
      {"measurement": "anti-epileptic effect, duration", "setting": "mouse model of seizures", "value": "lost between two to three hours after administration"},
      {"measurement": "Decreased activation vs. vehicle treated SOD1 mice", "setting": "activated astrocytes; Cervical, day 85", "value": "No decrease"},
      {"measurement": "Decreased activation vs. vehicle treated SOD1 mice", "setting": "activated astrocytes; Cervical, day 100, listed as Sulfasalazine formulation", "value": "significantly lowered astrocyte activation"},
      {"measurement": "Decreased activation vs. vehicle treated SOD1 mice", "setting": "activated astrocytes; Cervical, day 100, listed as sulfasalazine formulation", "value": "Strong decrease (p < 0.01)"},
      {"measurement": "Decreased activation vs. vehicle treated SOD1 mice", "setting": "activated astrocytes; Combined, day 85", "value": "Decrease (p < 0.05)"},
      {"measurement": "Decreased activation vs. vehicle treated SOD1 mice", "setting": "activated astrocytes; Combined, day 100", "value": "Trend"},
      {"measurement": "Decreased activation vs. vehicle treated SOD1 mice", "setting": "activated astrocytes; Lumbar, day 85, listed as Sulfasalazine formulation", "value": "significantly lowered astrocyte activation"},
      {"measurement": "Decreased activation vs. vehicle treated SOD1 mice", "setting": "activated astrocytes; Lumbar, day 85, listed as sulfasalazine formulation", "value": "Decrease (p < 0.05)"},
      {"measurement": "Decreased activation vs. vehicle treated SOD1 mice", "setting": "activated astrocytes; Lumbar, day 100, listed as Sulfasalazine formulation", "value": "did not affect astrocyte activation"},
      {"measurement": "Decreased activation vs. vehicle treated SOD1 mice", "setting": "activated astrocytes; Lumbar, day 100, listed as sulfasalazine formulation", "value": "No decrease"},
      {"measurement": "Decreased activation vs. vehicle treated SOD1 mice", "setting": "activated astrocytes; Thoracic, day 85", "value": "Trend"},
      {"measurement": "Decreased activation vs. vehicle treated SOD1 mice", "setting": "activated astrocytes; Thoracic, day 100", "value": "No decrease"},
      {"measurement": "time plasma levels above 10 μg/ml were maintained", "setting": "[1]", "value": "approximately 7 hours"}
    ]}
  ]
}
